Data: publication PMC12021085 (2025)

Key:
[1] = test system: NOP56-G4 template (with annealed Cy5 primer) (DNA, G4) GGGCCTGGGCCTGGGCCTGGGTTTTTTTATAGTGAGTCGTATTA/TAATACGACTCACTATA; assay: DNA polymerase stop assay (Klenow fragment); conditions: K+ (100 mM KCl), Na+ (50 mM NaCl), Mg2+ (10 mM MgCl2); 10 mM Tris-HCl pH 7.9, 1 mM DTT, 37 °C; PDS concentration-dependent stalling
[2] = test system: NOP56-G4 (DNA, G4) GGGCCTGGGCCTGGGCCTGGG; assay: solution NMR structure; conditions: Na+ (1 mM sodium phosphate); pH 7, 25 °C; 0.5 mM DNA, 1.5 mM PDS; stacks on terminal G-tetrad
[3] = test system: NOP56-G4 (DNA, G4) GGGCCTGGGCCTGGGCCTGGG; assay: CD melting at 295 nm; conditions: Na+ (1 mM sodium phosphate); pH 7; 3 equivalents PDS; Tm 44.8 to 58.8 °C
[4] = test system: NOP56-G4 (DNA, G4) GGGCCTGGGCCTGGGCCTGGG; assay: ITC; conditions: Na+ (1 mM sodium phosphate); pH 7.0, room temperature; 200 µM PDS titrated into 10 µM DNA
[5] = test system: NOP56-G4 (DNA, G4) GGGCCTGGGCCTGGGCCTGGG; assay: CD spectroscopy; conditions: K+ (100 mM KCl), Na+ (1 mM sodium phosphate); pH 7, 25 °C; 20 µM DNA, 20 µM PDS; antiparallel G4 features

binding [1]: yes
binding [2]: yes
Tm increase [3]: ~ 14 °C
KD [4]: 640 ± 20 nM
binding [5]: yes
SMILES: NCCOc1cc(C(=O)Nc2cc(OCCN)c3ccccc3n2)nc(C(=O)Nc2cc(OCCN)c3ccccc3n2)c1
